In assay [1] the test system is Botrytis cinerea. As to the kind of experiment: Example A: in vivo preventive test on Botrytis cinerea (grey mould), gherkin. The conditions noted are these: gherkin plants, preventive spray, evaluated 4 to 5 days after inoculation, read-out: efficacy. Here is the method:
Example A: In Vivo Preventive Test on Botrytis cinerea (Grey Mould) [table] The active ingredients are made soluble and homogenized in a mixture of Dimethyl sulfoxide/Acetone//Tween® 80 and then diluted in water to the desired concentration. The young plants of gherkin are treated by spraying the active ingredient prepared as described above. Control plants are treated only with an aqueous solution of Acetone/Dimethyl sulfoxide/Tween® 80. After 24 hours, the plants are contaminated by spraying the leaves with an aqueous suspension of Botrytis cinerea spores. The contaminated gherkin plants are incubated for 4 to 5 days at 17° C. and at 90% relative humidity. The test is evaluated 4 to 5 days after the inoculation. 0% means an efficacy which corresponds to that of the control plants while an efficacy of 100% means that no disease is observed.

Assay [2] has as its system Alternaria solani. The assay can be described thus: Example F: in vivo preventive test on Alternaria test (tomatoes). The conditions noted are these: 72 h, 100 ppm of active ingredient, preventive spray, evaluated 3 days after inoculation, read-out: efficacy. Here is the method: Example F: In Vivo Preventive Test on Alternaria Test (Tomatoes) [table] To produce a suitable preparation of active compound, 1 part by weight of active compound is mixed with the stated amounts of solvent and emulsifier, and the concentrate is diluted with water to the desired concentration. To test for preventive activity, young plants are sprayed with the preparation of active compound at the stated rate of application. After the spray coating has dried on, the plants are inoculated with an aqueous spore suspension of Alternaria solani. The plants are then placed in an incubation cabinet at approximately 20° C. and a relative atmospheric humidity of 100%. The test is evaluated 3 days after the inoculation. 0% means an efficacy which corresponds to that of the untreated control while an efficacy of 100% means that no disease is observed.

Assay [3] concerns Blumeria graminis f.sp. hordei. As to the kind of experiment: Example I: in vivo preventive Blumeria test (barley). The settings on record: 168 h, 500 ppm of active ingredient, preventive spray, evaluated 7 days after inoculation, read-out: efficacy. As to the method: Example I: In Vivo Preventive Blumeria Test (Barley) [table] To produce a suitable preparation of active compound, 1 part by weight of active compound or active compound combination is mixed with the stated amounts of solvent and emulsifier, and the concentrate is diluted with water to the desired concentration. To test for preventive activity, young plants are sprayed with the preparation of active compound or active compound combination at the stated rate of application. After the spray coating has been dried, the plants are dusted with spores of Blumeria graminis f.sp. hordei. The plants are placed in the greenhouse at a temperature of approximately 18° C. and a relative atmospheric humidity of approximately 80% to promote the development of mildew pustules. The test is evaluated 7 days after the inoculation. 0% means an efficacy which corresponds to that of the untreated control, while an efficacy of 100% means that no disease is observed.

For assay [4], the system named is Leptosphaeria nodorum. As to the kind of experiment: Example J: in vivo preventive Leptosphaeria nodorum test (wheat). The settings on record: Parastagonospora nodorum, 192 h, 500 ppm of active ingredient, preventive spray, evaluated 8 days after inoculation, read-out: efficacy. As to the method:
Example J: In Vivo Preventive Leptosphaeria nodorum Test (Wheat) [table] To produce a suitable preparation of active compound, 1 part by weight of active compound or active compound combination is mixed with the stated amounts of solvent and emulsifier, and the concentrate is diluted with water to the desired concentration. To test for preventive activity, young plants are sprayed with the preparation of active compound or active compound combination at the stated rate of application. After the spray coating has been dried, the plants are sprayed with a spore suspension of Leptosphaeria nodorum. The plants remain for 48 hours in an incubation cabinet at approximately 20° C. and a relative atmospheric humidity of approximately 100%. The plants are placed in the greenhouse at a temperature of approximately 25° C. and a relative atmospheric humidity of approximately 80%. The test is evaluated 8 days after the inoculation. 0% means an efficacy which corresponds to that of the untreated control, while an efficacy of 100% means that no disease is observed.

Assay [5] deals with Puccinia triticina. As to the kind of experiment: Example K: in vivo preventive Puccinia triticina test (wheat). The conditions noted are these: 192 h, 500 ppm of active ingredient, preventive spray, evaluated 8 days after inoculation, read-out: efficacy. As to the method: Example K: In Vivo Preventive Puccinia Triticina Test (Wheat)
To produce a suitable preparation of active compound, 1 part by weight of active compound or active compound combination is mixed with the stated amounts of solvent and emulsifier, and the concentrate is diluted with water to the desired concentration.
To test for preventive activity, young plants are sprayed with the preparation of active compound or active compound combination at the stated rate of application.
After the spray coating has been dried, the plants are sprayed with a spore suspension of Puccinia triticina. The plants remain for 48 hours in an incubation cabinet at approximately 20° C. and a relative atmospheric humidity of approximately 100%.
The plants are placed in the greenhouse at a temperature of approximately 20° C. and a relative atmospheric humidity of approximately 80%.
The test is evaluated 8 days after the inoculation. 0% means an efficacy which corresponds to that of the untreated control, while an efficacy of 100% means that no disease is observed.

Assay [6] concerns Septoria tritici. The assay can be described thus: Example L: in vivo preventive Septoria tritici test (wheat). The settings on record: Zymoseptoria tritici, 504 h, 500 ppm of active ingredient, preventive spray, evaluated 21 days after inoculation, read-out: efficacy. Here is the method: Example L: In Vivo Preventive Septoria tritici Test (Wheat) [table] To produce a suitable preparation of active compound, 1 part by weight of active compound or active compound combination is mixed with the stated amounts of solvent and emulsifier, and the concentrate is diluted with water to the desired concentration. To test for preventive activity, young plants are sprayed with the preparation of active compound or active compound combination at the stated rate of application. After the spray coating has been dried, the plants are sprayed with a spore suspension of Septoria tritici. The plants remain for 48 hours in an incubation cabinet at approximately 20° C. and a relative atmospheric humidity of approximately 100% and afterwards for 60 hours at approximately 15° C. in a translucent incubation cabinet at a relative atmospheric humidity of approximately 100%. The plants are placed in the greenhouse at a temperature of approximately 15° C. and a relative atmospheric humidity of approximately 80%. The test is evaluated 21 days after the inoculation. 0% means an efficacy which corresponds to that of the untreated control, while an efficacy of 100% means that no disease is observed.

The subject of assay [7] is Sphaerotheca fuliginea. As to the kind of experiment: Example M: in vivo preventive test on Sphaerotheca (cucumbers); comparison of phenoxy-pyridyl compounds vs. known phenoxy-phenyl compounds. The settings on record: Podosphaera fuliginea, 168 h, rate of application 10 ppm, evaluated 7 days after inoculation, read-out: Efficacy in %. As to the method:
Example M: In Vivo Preventive Test on Sphaerotheca (Cucumbers); Comparison of Phenoxy-pyridyl Compounds According to the Invention Vs. Known Phenoxy-phenyl Compounds [table] To produce a suitable preparation of active compound, 1 part by weight of active compound is mixed with the above stated amounts of solvent and emulsifier, and the concentrate is diluted with water to the desired concentration. To test for preventive activity, young plants are sprayed with the preparation of active compound at the stated rate of application. After the spray coating has dried on, the plants are inoculated with an aqueous spore suspension of Sphaerotheca fuliginea. The plants are then placed in a greenhouse at approximately 23° C. and a relative atmospheric humidity of approximately 70%. The test is evaluated 7 days after the inoculation. 0% means an efficacy which corresponds to that of the untreated control, while an efficacy of 100% means that no disease is observed. [table]

The record followed here is patent publication US10485236B2, “Triazole derivatives, intermediates thereof and their use as fungicides” (Bayer CropScience Aktiengesellschaft, priority 2015, dated 2019).

For `CC(O)(Cn1cncn1)c1ccc(Oc2ccc(Cl)cc2)nc1C(F)(F)F` (stereo not shown) [I.01, 2-[6-(4-chlorophenoxy)-2-(trifluoromethyl)-3-pyridyl]-1-(1,2,4-triazol-1-yl)propan-2-ol], the pest or weed control in assay [1] lay in the range of 90 to 100%. In addition, in assay [2], the pest or weed control at 100 ppm is 90 to 100%. The pest or weed control at 500 ppm in assay [3], in assay [4], in assay [5] and in assay [6] was 90 to 100% each time. Besides, the pest or weed control at 10 ppm in assay [7] came to 100%.

Take `CC(O)(Cn1cncn1)c1cnc(Oc2ccc(Cl)cc2)cc1C(F)(F)F` (stereo not shown) [I.02, 2-[6-(4-chlorophenoxy)-4-(trifluoromethyl)-3-pyridyl]-1-(1,2,4-triazol-1-yl)propan-2-ol]: the pest or weed control at 100 ppm in assay [2] is 90 to 100%. Further, the pest or weed control at 500 ppm in assay [3], in assay [4], in assay [5] and in assay [6] was 90 to 100% in each case.

With `OC(Cn1cncn1)c1ccc(Oc2ccc(Cl)cc2)nc1C(F)(F)F` (stereo not shown) [I.03, 1-[6-(4-chlorophenoxy)-2-(trifluoromethyl)-3-pyridyl]-2-(1,2,4-triazol-1-yl)ethanol], the pest or weed control in assay [1] lay within 90 to 100%. The pest or weed control at 100 ppm in assay [2] is 80 to 89%. Besides, the pest or weed control at 500 ppm in assay [4] is 80 to 89%; in assay [5], 90 to 100%; in assay [6], 90 to 100%.

As to `CC(O)(Cn1cncn1)c1cnc(Oc2ccccc2)cc1Cl` (stereo not shown) [I.05], the pest or weed control in assay [1] was in the range of 90 to 100%. Also, the pest or weed control at 100 ppm in assay [2] lay within 90 to 100%. In addition, the pest or weed control at 500 ppm in assay [3] lay in the range of 90 to 100%; in assay [4], 80 to 89%; in assay [5], 90 to 100%; in assay [6], 90 to 100%. For the same molecule, the pest or weed control at 10 ppm in assay [7] came out at 71%.

Take `OC(Cn1cncn1)c1ccc(Oc2ccc(Cl)cc2)nc1Cl` (stereo not shown) [I.14]: in assay [1], the pest or weed control fell in the range of 90 to 100%. Also, the pest or weed control at 100 ppm in assay [2] is 90 to 100%. Besides, the pest or weed control at 500 ppm in assay [3] lay within 90 to 100%; in assay [4], 70 to 79%; in assay [5], 90 to 100%. Further, the pest or weed control at 10 ppm in assay [7] came out at 83%.

For the molecule `Cc1ccc(Oc2ccc(C(O)Cn3cncn3)c(Cl)n2)cc1Cl` (stereo not shown) [I.16], the pest or weed control in assay [1] was 90 to 100%. The pest or weed control at 100 ppm in assay [2] lay in the range of 90 to 100%. For the same molecule, in assay [7], the pest or weed control at 10 ppm amounted to 77%.

In the case of `CC(O)(Cn1cncn1)c1ccc(Oc2ccc(S(F)(F)(F)(F)F)cc2)nc1Cl` (stereo not shown) [I.35], the pest or weed control at 100 ppm in assay [2] fell in the range of 90 to 100%. In addition, the pest or weed control at 500 ppm in assay [3] fell in the range of 90 to 100%; in assay [4], 80 to 89%; in assay [5], 90 to 100%; in assay [6], 90 to 100%. In assay [7], the pest or weed control at 10 ppm is 100%.

With `OC(Cn1cncn1)c1cnc(Oc2ccc(S(F)(F)(F)(F)F)cc2)cc1C(F)(F)F` (stereo not shown) [I.36], the pest or weed control at 100 ppm in assay [2] lay in the range of 90 to 100%. The pest or weed control at 500 ppm in assay [3], in assay [4], in assay [5] and in assay [6] was 90 to 100% in each case. Besides, in assay [7], the pest or weed control at 10 ppm was found to be 100%.

With `CC(O)(Cn1cncn1)c1ccc(Oc2ccc(C(F)F)cc2)nc1Cl` (stereo not shown) [I.39], in assay [1], the pest or weed control was in the range of 90 to 100%. In addition, the pest or weed control at 100 ppm in assay [2] lay in the range of 90 to 100%. Also, the pest or weed control at 500 ppm lay in the range of 90 to 100% in assay [3], 70 to 79% in assay [4], 90 to 100% in assay [5] and 70 to 79% in assay [6]. Besides, the pest or weed control at 10 ppm in assay [7] was 97%.

For the molecule `C[C@@](O)(Cn1cncn1)c1cnc(Oc2ccc(Cl)cc2)cc1C(F)(F)F` [I.45], the pest or weed control in assay [1] is 90 to 100%. In addition, in assay [2], the pest or weed control at 100 ppm lay in the range of 90 to 100%. Besides, the pest or weed control at 500 ppm in assay [3], in assay [4], in assay [5] and in assay [6] was 90 to 100% in each case. Moreover, in assay [7], the pest or weed control at 10 ppm was determined as 99%.

With `OC(Cn1cncn1)c1cnc(Oc2ccc(C(F)(F)F)cc2)cc1C(F)(F)F` (stereo not shown) [I.47], in assay [1], the pest or weed control is 80 to 89%. The pest or weed control at 100 ppm in assay [2] lay within 90 to 100%. Moreover, the pest or weed control at 500 ppm in assay [3], in assay [4], in assay [5] and in assay [6] was 90 to 100% throughout. The pest or weed control at 10 ppm in assay [7] came out at 100%.

Take `OC(Cn1cncn1)(c1ccc(Oc2ccc(Cl)cc2)nc1C(F)(F)F)C1CC1` (stereo not shown) [I.91, 1-[6-(4-chlorophenoxy)-2-(trifluoromethyl)-3-pyridyl]-1-cyclopropyl-2-(1,2,4-triazol-1-yl)ethanol]: the pest or weed control in assay [1] was in the range of 90 to 100%. In addition, the pest or weed control at 500 ppm lay in the range of 90 to 100% in assay [3], 90 to 100% in assay [5] and 80 to 89% in assay [6].

For the molecule `O=C(Cn1cncn1)c1ccc(Oc2ccc(Cl)cc2)nc1C(F)(F)F` [VII.01, 1-[6-(4-chlorophenoxy)-2-(trifluoromethyl)-3-pyridyl]-2-(1,2,4-triazol-1-yl)ethanone], in assay [2], the pest or weed control at 100 ppm was 80 to 89%. The pest or weed control at 500 ppm in assay [3], in assay [4], in assay [5] and in assay [6] was 90 to 100% in each case. In addition, the pest or weed control at 10 ppm in assay [7] came to 78%.
